Residues, ends and D or L forms follow the SMILES beside them. *: point of attachment. Fmoc = O=C(OCC1c2ccccc2-c2ccccc21)*
Assay: Mouse ribonucleotide reductase (mRR) activity was determined by relative dissociation constant which was assayed for binding activity to mR1

SMILES | Relative Kd
O=C(N[C@@H](Cc1c[nH]c2ccccc12)C(=O)N[C@@H](Cc1ccccc1)C(=O)N[C@@H](Cc1ccccc1)C(=O)O)OCC1c2ccccc2-c2ccccc21 (Fmoc-Trp-Phe-Phe-OH) | 1
O=C(N[C@@H](Cc1ccccc1)C(=O)O)OCC1c2ccccc2-c2ccccc21 | 22
CC(=O)N[C@@H](Cc1ccccc1)C(=O)N[C@H](C(=O)N[C@@H](CC(C)C)C(=O)N[C@@H](CC(=O)O)C(=O)N[C@@H](C)C(=O)N[C@@H](CC(=O)O)C(=O)N[C@@H](Cc1ccccc1)C(=O)O)[C@@H](C)O (Ac-FTLDADF-OH) | 1
CC(C)C[C@H](NC(=O)OCC1c2ccccc2-c2ccccc21)C(=O)O | 38
O=C(N[C@H](C(=O)O)c1ccccc1)OCC1c2ccccc2-c2ccccc21 | 31
O=C(N[C@@H](Cc1c[nH]c2ccccc12)C(=O)O)OCC1c2ccccc2-c2ccccc21 | 18
